From PMC10960705 (Cell chemical biology, 2023)
Blank lines part the entries; values can stand above or below the compound they belong to.

Tests used:
Type in all cases: cell-based
VLDLR = VLDLR (Homo sapiens, UniProt P98155); assay: TMT-ABPP competition with DBIA probe in lysate
KRAS^G12C = KRAS^G12C (Homo sapiens, UniProt P01116, G12C); assay: TMT-ABPP competition with DBIA probe in HCC44 lysate, […], […] hr
[1] = target: peptidyl-prolyl cis/trans isomerase PIN1 (Homo sapiens, UniProt Q13526); assay: TMT-ABPP dose-response competition with DBIA probe in lysate
Chain of peptidyl-prolyl cis/trans isomerase PIN1 (Q13526 whole entry): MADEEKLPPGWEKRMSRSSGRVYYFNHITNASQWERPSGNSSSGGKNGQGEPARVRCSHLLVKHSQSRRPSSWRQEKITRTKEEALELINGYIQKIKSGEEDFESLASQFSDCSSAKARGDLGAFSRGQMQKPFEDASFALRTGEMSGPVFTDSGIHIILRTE

Compound: C=CC(=O)N1CCCC(n2ccnn2)CC1 (stereo not drawn) [AC19, 1-(4-(1H-1,2,3-triazol-1-yl)azepan-1-yl)prop-2-en-1-one]
TMT-ABPP competition with DBIA probe in lysate (VLDLR): reside in their respective EGF-like domains and were all exclusively and significantly engaged by AC19

TMT-ABPP competition with DBIA probe in HCC44 lysate, 50 μM, 1 hr (KRAS^G12C): 2.7 competition ratio (CR) at 50 μM
Compound: C=CC(=O)N1CCN(c2ncnc3c(F)c(-c4c(O)cccc4F)c(Cl)cc23)CC1 [ARS-1620]

Compound: CC(C)(C)CN(C(=O)CCl)C1CCS(=O)(=O)C1 (stereo not drawn) [Sulfopin]
TMT-ABPP dose-response competition with DBIA probe in lysate [1]: Sulfopin is the most potent among the four whereas CL41 is the least
